Results on 6 compounds are retold here after US20040058357A1 (priority 2003, published 2004).

Test [1] concerns hippocampal slices. It is filed as cell-based, mice.
In test [2] the test system is PC12 cells. Type of test: cell-based.
For test [3], the system named is AChE. It is filed as cell-based.
Test [4] deals with AChE. Particulars: rat, in vivo.
The test system of test [5] is AChE. The following applies: rat, in vivo. This is another data set of the same source.
Test [6] concerns AChE-S mRNA. Particulars: rat, in vivo.

Each structure is given as a SMILES string.

Take `NC(CCCP(=O)(O)O)C(=O)O` (stereo not drawn) [APV, aminophosphonopentanoic acid]: the “Effect on the evoked pfp” value in test [1] is given as “blocked”.

`CN1[C@@H]2CC[C@H]1C[C@@H](OC(=O)C(CO)c1ccccc1)C2` (stereo partly drawn) [atropine]: in test [1], the “Block of the evoked response” value is on record as “over 90%” and the “Reversal of the physostigmine-induced response” value came to 70%.

Turning to `C[C@]12C[C@H](O)[C@H]3[C@@H](CCC4=CC(=O)CC[C@@]43C)[C@@H]1CC[C@@H]2C(=O)CO` [corticosterone], the “Increase in labeling intensities of both AChE splice variants versus vehicle-treated cells” value in test [2] is listed as 30-50%. The “Increase in acetylthiocholine hydrolytic capacity of AChE” value in test [3] is 25±14%.

`CNC(=O)Oc1ccc2c(c1)[C@]1(C)CCN(C)[C@@H]1N2C` [physostigmine]: in test [1], the “Increase in amplitude of evoked population spikes, mean” value turned out to be 42±15%; the “Increase in amplitude of evoked population spikes, range” value was 20-80%; the “Increase over baseline in population spike amplitudes relative to non-stressed animals” value was 12 fold.

For the compound `CN1CCN(CC(=O)N2c3ccccc3C(=O)Nc3cccnc32)CC1` [pirenzepine], the “DFP-induced increase of G1:G4 ratio under co-injection” value in test [4] was “prevented”. In test [5], the “Cortical DFP-induced decrease in AChE activity under pirenzepine pre-treatment” value was 44 % of control and the “Hippocampal regaining of AChE activity after DFP under pirenzepine pre-treatment” value was 63 % of control. Moreover, in test [6], the “AChE-S elevation by vehicle injection-induced stress under muscarinic blocker” value was found to be 39.1±5.2 AFU; the “AChE-S mRNA labeling, change in words” value was “somewhat lower increase”; the “DFP-induced AChE-S expression” value worked out at 30.4±4.9 AFU; the “Effect on AChE-S or -R levels after 24 hours” value is recorded as “did not show any effect”.

Consider `CN1[C@@H]2C[C@@H](OC(=O)[C@H](CO)c3ccccc3)C[C@H]1[C@@H]1O[C@@H]12` [scopolamine], for which the “DFP-induced increase of G1:G4 ratio under co-injection” value in test [4] is “prevented”. Moreover, the “Effect on the DFP-induced decrease in AChE activities” value in test [5] was “no significant effect”. In addition, in test [6], the “AChE-S elevation by vehicle injection-induced stress under muscarinic blocker” value was found to be 39.6±3.3 AFU; the “AChE-S mRNA labeling, change in words” value is listed as “conspicuous increases”; the “DFP-induced AChE-S expression” value is recorded as 35.1±10 AFU; the “Effect on AChE-S or -R levels after 24 hours” value is on record as “did not show any effect”.
